{
  "source": "patent US8952024B2",
  "about": "“Herbicidal pyrimidone derivatives” (E I du Pont de Nemours and Company, priority 2009, dated 2015)",
  "assay_in_all_cases": "Test B pre-/postemergence plant response",
  "format_in_all_cases": "in vivo",
  "key": {"[1]": {"tested_on": "wheat (Triticum aestivum)", "summary_of_the_method": "(§1)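 Test compounds, formulated in a non-phytotoxic solvent mixture with surfactant, are applied to the soil surface (loam and sand blend) right after seeding, or sprayed over plants at the 1- to 4-leaf stage grown in peat moss/vermiculite medium. After 13 to 15 days under glasshouse conditions, each species is scored visually from 0 (no effect) to 100 (complete control) against controls.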"}, "[2]": {"tested_on": "downy bromegrass (Bromus tectorum)", "summary_of_the_method": "as §1"}, "[3]": {"tested_on": "Surinam grass (Brachiaria decumbens)", "conditions": "for Plant response rating, Surinam Grass: Postemergence, scale 0 to 100 (0 no effect, 100 complete control)", "summary_of_the_method": "as §1"}, "[4]": {"tested_on": "johnsongrass (Sorghum halepense)", "summary_of_the_method": "as §1"}, "[5]": {"tested_on": "pigweed (Amaranthus retroflexus)", "summary_of_the_method": "as §1"}, "[6]": {"tested_on": "ragweed (common ragweed, Ambrosia elatior)", "conditions": "for Plant response rating, Ragweed: Postemergence, scale 0 to 100 (0 no effect, 100 complete control)", "summary_of_the_method": "as §1"}, "wild oat (Avena fatua)": {"tested_on": "wild oat (Avena fatua)", "summary_of_the_method": "as §1"}, "corn (Zea mays)": {"tested_on": "corn (Zea mays)", "summary_of_the_method": "as §1"}, "[7]": {"tested_on": "velvetleaf (Abutilon theophrasti)", "conditions": "for Plant response rating, Velvetleaf: Postemergence, scale 0 to 100 (0 no effect, 100 complete control)", "summary_of_the_method": "as §1"}, "[8]": {"tested_on": "woolly cupgrass (Eriochloa villosa)", "summary_of_the_method": "as §1"}, "[9]": {"tested_on": "lambsquarters (Chenopodium album)", "summary_of_the_method": "as §1"}, "[10]": {"tested_on": "yellow nutsedge (Cyperus esculentus)", "summary_of_the_method": "as §1"}, "[11]": {"tested_on": "goosegrass (Eleusine indica)", "summary_of_the_method": "as §1"}, "[12]": {"tested_on": "Italian ryegrass (Lolium multiflorum)", "conditions": "for Plant response rating, Ryegrass, Italian: Postemergence, scale 0 to 100 (0 no effect, 100 complete control)", "summary_of_the_method": "as §1"}, "[13]": {"tested_on": "blackgrass (Alopecurus myosuroides)", "summary_of_the_method": "as §1"}, "soybean (Glycine max)": {"tested_on": "soybean (Glycine max)", "conditions": "for Plant response rating, Soybean: Postemergence, scale 0 to 100 (0 no effect, 100 complete control)", "summary_of_the_method": "as §1"}, "[14]": {"tested_on": "large crabgrass (Digitaria sanguinalis)", "summary_of_the_method": "as §1"}, "kochia (Kochia scoparia)": {"tested_on": "kochia (Kochia scoparia)", "summary_of_the_method": "as §1"}, "[15]": {"conditions": "62 g ai/ha, postemergence, 0 is no effect, 100 is complete control, 13 to 15 days"}, "[16]": {"conditions": "Postemergence, 125 g ai/ha, scale 0 to 100 (0 no effect, 100 complete control)"}, "[17]": {"conditions": "31 g ai/ha, postemergence, scale 0 to 100, 0 is no effect, 100 is complete control"}, "[18]": {"conditions": "Postemergence, 250 g ai/ha, scale 0 to 100 (0 no effect, 100 complete control)"}},
  "data": [
    {"molecule": "COCCn1c(-c2cccs2)ncc(C(=O)C2=C(O)CCCC2=O)c1=O", "note": "[Compound 108]", "values": [
      {"measurement": "Wheat plant response rating (0 to 100 scale)", "setting": "[1]; [15]", "result": 0},
      {"measurement": "Plant response rating, Wheat", "setting": "[1]; [16]", "result": 0},
      {"measurement": "Plant response rating, Bromegrass, Downy", "setting": "[2]; [17]", "result": 0},
      {"measurement": "Bromegrass, Downy plant response rating (0 to 100 scale)", "setting": "[2]; [15]", "result": 0},
      {"measurement": "Plant response rating, Bromegrass, Downy", "setting": "[2]; [16]", "result": 5},
      {"measurement": "Plant response rating, Bromegrass, Downy", "setting": "[2]; [18]", "result": 5},
      {"measurement": "Surinam Grass plant response rating (0 to 100 scale)", "setting": "[3]; [15]", "result": 60},
      {"measurement": "Plant response rating, Surinam Grass", "setting": "[3]; 125 g ai/ha", "result": 65},
      {"measurement": "Plant response rating, Surinam Grass", "setting": "[3]; 250 g ai/ha", "result": 80},
      {"measurement": "Plant response rating, Johnsongrass", "setting": "[4]; [17]", "result": 10},
      {"measurement": "Johnsongrass plant response rating (0 to 100 scale)", "setting": "[4]; [15]", "result": 20},
      {"measurement": "Plant response rating, Johnsongrass", "setting": "[4]; [16]", "result": 20},
      {"measurement": "Plant response rating, Johnsongrass", "setting": "[4]; [18]", "result": 60},
      {"measurement": "Plant response rating, Pigweed", "setting": "[5]; [17]", "result": 95},
      {"measurement": "Pigweed plant response rating (0 to 100 scale)", "setting": "[5]; [15]", "result": 98},
      {"measurement": "Plant response rating, Pigweed", "setting": "[5]; [16]", "result": 100},
      {"measurement": "Plant response rating, Pigweed", "setting": "[5]; [18]", "result": 100},
      {"measurement": "Ragweed plant response rating (0 to 100 scale)", "setting": "[6]; [15]", "result": 85},
      {"measurement": "Plant response rating, Ragweed", "setting": "[6]; 125 g ai/ha", "result": 95},
      {"measurement": "Plant response rating, Ragweed", "setting": "[6]; 250 g ai/ha", "result": 98},
      {"measurement": "Plant response rating, Oat, Wild", "setting": "wild oat (Avena fatua); [17]", "result": 0},
      {"measurement": "Oat, Wild plant response rating (0 to 100 scale)", "setting": "wild oat (Avena fatua); [15]", "result": 0},
      {"measurement": "Plant response rating, Oat, Wild", "setting": "wild oat (Avena fatua); [16]", "result": 0},
      {"measurement": "Plant response rating, Oat, Wild", "setting": "wild oat (Avena fatua); [18]", "result": 0},
      {"measurement": "Plant response rating, Corn", "setting": "corn (Zea mays); [17]", "result": 15},
      {"measurement": "Corn plant response rating (0 to 100 scale)", "setting": "corn (Zea mays); [15]", "result": 35},
      {"measurement": "Plant response rating, Corn", "setting": "corn (Zea mays); [16]", "result": 50},
      {"measurement": "Plant response rating, Corn", "setting": "corn (Zea mays); [18]", "result": 65},
      {"measurement": "Velvetleaf plant response rating (0 to 100 scale)", "setting": "[7]; [15]", "result": 100},
      {"measurement": "Plant response rating, Velvetleaf", "setting": "[7]; 125 g ai/ha", "result": 100},
      {"measurement": "Plant response rating, Velvetleaf", "setting": "[7]; 250 g ai/ha", "result": 100},
      {"measurement": "Plant response rating, Cupgrass, Woolly", "setting": "[8]; [17]", "result": 40},
      {"measurement": "Cupgrass, Woolly plant response rating (0 to 100 scale)", "setting": "[8]; [15]", "result": 60},
      {"measurement": "Plant response rating, Cupgrass, Woolly", "setting": "[8]; [16]", "result": 70},
      {"measurement": "Plant response rating, Cupgrass, Woolly", "setting": "[8]; [18]", "result": 75},
      {"measurement": "Plant response rating, Lambsquarters", "setting": "[9]; [17]", "result": 98},
      {"measurement": "Lambsquarters plant response rating (0 to 100 scale)", "setting": "[9]; [15]", "result": 98},
      {"measurement": "Plant response rating, Lambsquarters", "setting": "[9]; [16]", "result": 100},
      {"measurement": "Plant response rating, Lambsquarters", "setting": "[9]; [18]", "result": 100},
      {"measurement": "Plant response rating, Nutsedge, Yellow", "setting": "[10]; [17]", "result": 50},
      {"measurement": "Nutsedge, Yellow plant response rating (0 to 100 scale)", "setting": "[10]; [15]", "result": 75},
      {"measurement": "Plant response rating, Nutsedge, Yellow", "setting": "[10]; [16]", "result": 80},
      {"measurement": "Plant response rating, Nutsedge, Yellow", "setting": "[10]; [18]", "result": 85},
      {"measurement": "Plant response rating, Goosegrass", "setting": "[11]; [17]", "result": 60},
      {"measurement": "Goosegrass plant response rating (0 to 100 scale)", "setting": "[11]; [15]", "result": 70},
      {"measurement": "Plant response rating, Goosegrass", "setting": "[11]; [16]", "result": 75},
      {"measurement": "Plant response rating, Goosegrass", "setting": "[11]; [18]", "result": 85},
      {"measurement": "Ryegrass, Italian plant response rating (0 to 100 scale)", "setting": "[12]; [15]", "result": 0},
      {"measurement": "Plant response rating, Ryegrass, Italian", "setting": "[12]; 125 g ai/ha", "result": 0},
      {"measurement": "Plant response rating, Ryegrass, Italian", "setting": "[12]; 250 g ai/ha", "result": 0},
      {"measurement": "Plant response rating, Blackgrass", "setting": "[13]; [17]", "result": 0},
      {"measurement": "Blackgrass plant response rating (0 to 100 scale)", "setting": "[13]; [15]", "result": 5},
      {"measurement": "Plant response rating, Blackgrass", "setting": "[13]; [16]", "result": 20},
      {"measurement": "Plant response rating, Blackgrass", "setting": "[13]; [18]", "result": 30},
      {"measurement": "Soybean plant response rating (0 to 100 scale)", "setting": "soybean (Glycine max); [15]", "result": 55},
      {"measurement": "Plant response rating, Soybean", "setting": "soybean (Glycine max); 125 g ai/ha", "result": 65},
      {"measurement": "Plant response rating, Soybean", "setting": "soybean (Glycine max); 250 g ai/ha", "result": 85},
      {"measurement": "Plant response rating, Crabgrass, Large", "setting": "[14]; [17]", "result": 60},
      {"measurement": "Crabgrass, Large plant response rating (0 to 100 scale)", "setting": "[14]; [15]", "result": 70},
      {"measurement": "Plant response rating, Crabgrass, Large", "setting": "[14]; [16]", "result": 75},
      {"measurement": "Plant response rating, Crabgrass, Large", "setting": "[14]; [18]", "result": 85},
      {"measurement": "Plant response rating, Kochia", "setting": "kochia (Kochia scoparia); [17]", "result": 70},
      {"measurement": "Kochia plant response rating (0 to 100 scale)", "setting": "kochia (Kochia scoparia); [15]", "result": 95},
      {"measurement": "Plant response rating, Kochia", "setting": "kochia (Kochia scoparia); [16]", "result": 98},
      {"measurement": "Plant response rating, Kochia", "setting": "kochia (Kochia scoparia); [18]", "result": 100}
    ]}
  ]
}
